Measured values as given in patent US9943504B2, “Arginine methyltransferase inhibitors and uses thereof” (Epizyme, Inc., priority 2013, dated 2018).

Target: T1, human PRMT6 (Homo sapiens, UniProt Q96LA8)
T1 construct: Flag-PRMT6-His was eluted with 200 ug/ml FLAG peptide in the same buffer; made in house; host or cells: HEK 293F cells (BacMam baculovirus)
Assay: PRMT6 Biochemical Assay
Conditions: biochemical evaluation, peptide substrate
From the text: S-adenosylmethionine (SAM), S-adenosylhomocysteine (SAH), bicine, Tween20, dimethylsulfoxide (DMSO), bovine skin gelatin (BSG), sodium butyrate and Tris(2-carboxyethyl)phosphine hydrochloride solution (TCEP) were purchased from Sigma-Aldrich at the highest level of purity possible. ^3H-SAM was purchase from American Radiolabeled Chemicals with a specific activity of 80 Ci/mmol. 384-well streptavidin Flashplates were purchased from PerkinElmer.
Peptide representative of human histone H4 residues 36-50 was synthesized with an N-terminal linker-affinity tag motif and a C-terminal amide cap by 21st Century Biochemicals. The peptide was purified by high-performance liquid chromatography (HPLC) to greater than 95% purity and confirmed by liquid chromatography mass spectrometry (LC-MS). The sequence was Biot-Ahx-[…]-amide and contained a monomethylated lysine at position 44 (SEQ ID NO.: 5). […]
The assays were all performed in a buffer consisting of 20 mM Bicine (pH=7.6), 1 mM TCEP, 0.005% BSG, and 0.002% Tween 20, prepared on the day of use. […] The plates were then read in a PerkinElmer TopCount plate reader to measure the quantity of ^3H-labeled peptide bound to the Flashplate surface, measured as disintegrations per minute (dpm) or alternatively, referred to as counts per minute (cpm). […]

T1 sequence (Q96LA8 with tags, fused parts or gaps): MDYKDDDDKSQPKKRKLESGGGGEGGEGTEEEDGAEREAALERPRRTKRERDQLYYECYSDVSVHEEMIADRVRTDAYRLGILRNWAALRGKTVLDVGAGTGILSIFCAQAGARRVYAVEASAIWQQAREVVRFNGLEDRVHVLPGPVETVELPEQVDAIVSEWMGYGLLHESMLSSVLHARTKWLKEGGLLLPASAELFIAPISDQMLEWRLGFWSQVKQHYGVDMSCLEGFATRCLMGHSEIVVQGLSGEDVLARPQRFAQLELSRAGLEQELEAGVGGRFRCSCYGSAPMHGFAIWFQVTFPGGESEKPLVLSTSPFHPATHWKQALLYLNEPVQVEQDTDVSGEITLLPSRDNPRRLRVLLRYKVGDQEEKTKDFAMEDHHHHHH

CN(CCN)Cc1n[nH]c2cccc(OCc3ccccc3)c12 [Compound 1]
IC50: ≤ 100 nM
